Source: the NIST ThermoML archive (doi:10.1021/acs.jced.6b00794)
± gives the expanded uncertainty stated by the source.

Experiment: refractive index (Na D-line) (dimensionless)
Details: 293.15 K; 101.33 kPa; Liquid; Standard Abbe refractometry

| Compound | refractive index |
| --- | --- |
| CC(=O)O [acetic acid] | 1.3717 ± 0.0024 |
| CCO [ethanol] | 1.3616 ± 0.0024 |
| C=COC(C)=O [vinyl acetate] | 1.3926 ± 0.0024 |
| O [water] | 1.3328 ± 0.0024 |
